Test: xn = mol fraction of the nth substance listed
Conditions: 298 K, Liquid

ClCCCl [1,2-dichloroethane] + CC(=O)N(C)C
mass density [kg/m3]
Conditions | x2 = 0.0977 | x2 = 0.2003 | x2 = 0.2988 | x2 = 0.4022 | x2 = 0.4999 | x2 = 0.6007 | x2 = 0.7008 | x2 = 0.7988 | x2 = 0.8997
100 kPa | 1210 | 1174.4 | 1141.3 | 1107.9 | 1077.4 | 1047.1 | 1018.1 | 990.5 | 963.2
500 kPa | 1210.4 | 1174.8 | 1141.6 | 1108.2 | 1077.7 | 1047.4 | 1018.4 | 990.8 | 963.4
1000 kPa | 1210.9 | 1175.2 | 1142.1 | 1108.7 | 1078 | 1047.7 | 1018.7 | 991.1 | 963.8
1500 kPa | 1211.3 | 1175.6 | 1142.5 | 1109 | 1078.4 | 1048.1 | 1019.1 | 991.4 | 964.1
2000 kPa | 1211.8 | 1176 | 1142.9 | 1109.5 | 1078.8 | 1048.4 | 1019.4 | 991.8 | 964.4
2500 kPa | 1212.2 | 1176.5 | 1143.3 | 1109.9 | 1079.2 | 1048.8 | 1019.8 | 992 | 964.7
3000 kPa | 1212.6 | 1176.9 | 1143.8 | 1110.2 | 1079.6 | 1049.1 | 1020.1 | 992.4 | 965
3500 kPa | 1213.2 | 1177.3 | 1144.1 | 1110.6 | 1080 | 1049.5 | 1020.5 | 992.7 | 965.3
4000 kPa | 1213.6 | 1177.7 | 1144.6 | 1111 | 1080.4 | 1049.8 | 1020.9 | 993.1 | 965.6
4500 kPa | 1214 | 1178.2 | 1144.8 | 1111.5 | 1080.8 | 1050.1 | 1021.1 | 993.4 | 965.9
5000 kPa | 1214.5 | 1178.6 | 1145.4 | 1111.8 | 1081.1 | 1050.5 | 1021.5 | 993.7 | 966.2
5500 kPa | 1215 | 1179 | 1145.8 | 1112.2 | 1081.5 | 1050.8 | 1021.8 | 994 | 966.5
6000 kPa | 1215.4 | 1179.5 | 1146.1 | 1112.6 | 1081.8 | 1051.2 | 1022.1 | 994.3 | 966.9
6500 kPa | 1215.9 | 1179.9 | 1146.6 | 1113 | 1082.2 | 1051.6 | 1022.5 | 994.7 | 967.2
7000 kPa | 1216.3 | 1180.3 | 1147 | 1113.4 | 1082.6 | 1052 | 1022.8 | 995 | 967.5
7500 kPa | 1216.7 | 1180.7 | 1147.4 | 1113.8 | 1083 | 1052.3 | 1023.1 | 995.3 | 967.8
8000 kPa | 1217.2 | 1181.2 | 1147.8 | 1114.1 | 1083.3 | 1052.7 | 1023.5 | 995.6 | 968.1
8500 kPa | 1217.7 | 1181.5 | 1148.2 | 1114.5 | 1083.7 | 1053 | 1023.8 | 996 | 968.4
9000 kPa | 1218.1 | 1182 | 1148.6 | 1114.9 | 1084 | 1053.4 | 1024.2 | 996.3 | 968.8
9500 kPa | 1218.5 | 1182.4 | 1149 | 1115.3 | 1084.4 | 1053.8 | 1024.4 | 996.6 | 969
10000 kPa | 1219 | 1182.9 | 1149.5 | 1115.7 | 1084.8 | 1054.2 | 1024.8 | 996.9 | 969.4
10500 kPa | 1219.4 | 1183.3 | 1149.8 | 1116.1 | 1085.2 | 1054.5 | 1025.2 | 997.2 | 969.6
11000 kPa | 1219.9 | 1183.7 | 1150.3 | 1116.5 | 1085.6 | 1054.8 | 1025.5 | 997.6 | 970
11500 kPa | 1220.3 | 1184.2 | 1150.7 | 1116.9 | 1085.9 | 1055.2 | 1025.8 | 997.9 | 970.3
11900 kPa | – | – | – | – | 1086.2 | – | – | – | –
12000 kPa | 1220.8 | 1184.6 | 1151.1 | 1117.2 | – | 1055.5 | 1026.1 | 998.2 | 970.6
12500 kPa | 1221.2 | 1185 | 1151.5 | 1117.6 | 1086.6 | 1055.8 | 1026.5 | 998.5 | 970.9
13000 kPa | 1221.6 | 1185.4 | 1151.9 | 1118 | 1087 | 1056.2 | 1026.8 | 998.8 | 971.2
13500 kPa | 1222 | 1185.8 | 1152.2 | 1118.4 | 1087.3 | 1056.5 | 1027.1 | 999.2 | 971.5
14000 kPa | 1222.4 | 1186.3 | 1152.6 | 1118.7 | 1087.7 | 1056.8 | 1027.4 | 999.4 | 971.7
14500 kPa | 1222.9 | 1186.7 | 1153 | 1119.1 | 1088 | 1057.1 | 1027.8 | 999.7 | 972
14900 kPa | 1223.2 | – | – | – | – | – | – | – | –
15000 kPa | – | 1187.1 | 1153.4 | 1119.4 | 1088.4 | 1057.5 | 1028 | 1000 | 972.3
15500 kPa | 1223.7 | 1187.4 | 1153.8 | 1119.8 | 1088.7 | 1057.8 | 1028.4 | 1000.4 | 972.6
15900 kPa | – | – | – | 1120.1 | – | – | – | – | –
16000 kPa | 1224.1 | 1187.8 | 1154.2 | – | 1089.1 | 1058.1 | 1028.7 | 1000.6 | 972.9
16400 kPa | 1224.5 | – | – | – | – | – | – | – | –
16500 kPa | – | 1188.2 | 1154.6 | 1120.5 | 1089.4 | 1058.4 | 1029 | 1001 | 973.2
16900 kPa | – | – | – | – | – | – | 1029.3 | – | –
17000 kPa | 1224.9 | 1188.6 | 1155 | 1120.9 | 1089.8 | 1058.8 | – | 1001.3 | 973.4
17500 kPa | 1225.4 | 1189.2 | 1155.3 | 1121.3 | 1090.1 | 1059.2 | 1029.7 | 1001.5 | 973.7
17900 kPa | – | – | – | 1121.5 | – | – | – | – | –
18000 kPa | 1225.8 | 1189.5 | 1155.7 | – | 1090.4 | 1059.5 | 1029.9 | 1001.8 | 974
18500 kPa | 1226.1 | 1189.8 | 1156.1 | 1122 | 1090.8 | 1059.8 | 1030.2 | 1002.1 | 974.3
19000 kPa | 1226.6 | 1190.3 | 1156.5 | 1122.4 | 1091.2 | 1060.2 | 1030.6 | 1002.5 | 974.7
19500 kPa | 1227 | 1190.6 | 1156.8 | 1122.7 | 1091.5 | 1060.5 | 1030.9 | 1002.7 | 975
20000 kPa | 1227.5 | – | 1157.2 | 1123.1 | 1091.9 | 1060.8 | 1031.2 | 1003 | –
20100 kPa | – | 1191.1 | – | – | – | – | – | – | 975.4
